Results as given in patent US20250368678A1, “19-NOR-C3,3-DISUBSTITUTED C21-AZACYCLO-S[…] AND METHOD FOR USING SAME” (SHANDONG LUYE PHARMACEUTICAL CO., LTD., priority 2022, published 2025).

Molecular target: T1, α1β2γ2 GABA receptors (α1β2γ2-CHO-TRex stable cell strain) (Homo sapiens, UniProt P14867+P47870)
T1 construct: expressed in transfected cells
Assay: Whole-cell patch clamp, intrasynaptic functional activity (positive allosteric regulation of GABA-induced current)
Assay type: cell-based
Conditions: patch clamp -60 mV, GABA at EC10-20, α1β2γ2-CHO-TRex cells
Summary of the method: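 Tetracycline-induced stable lines were used: α4β3δ in HEK-FlpIn-TRex and α1β2γ2 in CHO-TRex. Whole-cell patch clamp was run at −60 mV with GABA at EC10-20 ([…]) and compound perfused for 30 s before GABA, with extracellular pH 7.4. Fold increase in GABA current over ≥5 concentrations on ≥3 cells gave EC50 and Emax by Hill fit.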

T1 sequence (P14867 28-456): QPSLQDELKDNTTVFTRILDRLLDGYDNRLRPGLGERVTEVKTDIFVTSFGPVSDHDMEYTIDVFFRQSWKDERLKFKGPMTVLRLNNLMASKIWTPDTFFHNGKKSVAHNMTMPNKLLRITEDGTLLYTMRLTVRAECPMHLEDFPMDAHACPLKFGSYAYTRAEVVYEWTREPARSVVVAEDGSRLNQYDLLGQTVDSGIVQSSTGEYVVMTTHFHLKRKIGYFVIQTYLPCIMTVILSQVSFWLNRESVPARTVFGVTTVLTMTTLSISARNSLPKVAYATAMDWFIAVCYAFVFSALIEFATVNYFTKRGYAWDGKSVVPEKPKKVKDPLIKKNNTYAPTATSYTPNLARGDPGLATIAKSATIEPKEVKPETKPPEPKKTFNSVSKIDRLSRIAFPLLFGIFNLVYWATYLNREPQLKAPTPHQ
T1 sequence (P47870 25-512 limits assumed): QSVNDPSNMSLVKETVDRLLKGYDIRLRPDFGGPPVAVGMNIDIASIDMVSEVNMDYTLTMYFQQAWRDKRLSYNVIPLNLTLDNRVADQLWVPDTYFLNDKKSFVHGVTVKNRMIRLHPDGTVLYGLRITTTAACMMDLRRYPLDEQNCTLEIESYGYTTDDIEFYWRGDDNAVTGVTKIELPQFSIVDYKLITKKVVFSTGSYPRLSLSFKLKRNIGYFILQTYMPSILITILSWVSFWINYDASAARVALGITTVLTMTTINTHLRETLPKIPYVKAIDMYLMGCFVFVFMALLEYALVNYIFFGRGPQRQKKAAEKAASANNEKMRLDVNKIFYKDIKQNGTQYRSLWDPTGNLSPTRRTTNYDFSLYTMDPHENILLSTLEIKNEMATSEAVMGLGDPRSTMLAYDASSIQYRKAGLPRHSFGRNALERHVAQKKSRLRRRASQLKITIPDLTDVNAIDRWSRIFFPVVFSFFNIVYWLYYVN
T1 sequence (P18507 40-475 partner): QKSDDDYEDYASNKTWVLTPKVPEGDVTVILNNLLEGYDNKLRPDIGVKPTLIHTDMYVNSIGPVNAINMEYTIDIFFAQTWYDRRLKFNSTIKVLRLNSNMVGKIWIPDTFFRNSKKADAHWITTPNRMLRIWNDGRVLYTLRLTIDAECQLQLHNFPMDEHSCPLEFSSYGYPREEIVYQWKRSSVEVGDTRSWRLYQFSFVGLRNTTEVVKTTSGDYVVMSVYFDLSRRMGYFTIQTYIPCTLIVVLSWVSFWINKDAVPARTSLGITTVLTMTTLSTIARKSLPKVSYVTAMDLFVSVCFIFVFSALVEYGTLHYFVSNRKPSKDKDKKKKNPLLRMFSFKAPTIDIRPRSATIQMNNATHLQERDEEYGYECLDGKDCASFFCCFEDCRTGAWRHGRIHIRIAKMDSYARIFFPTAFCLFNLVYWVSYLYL

## C[C@@]1(O)CC[C@H]2[C@H](CC[C@@H]3[C@@H]2CC[C@]2(C)[C@@H](C(=O)Cn4cnn(-c5cc(F)nc(F)c5)c4=O)CC[C@@H]32)C1 [Compound 41]
  EC50: 145 nM
  Emax: 762%
